Assay results taken from PubChem BioAssay AID330 (DTP/NCI, 2004).
Several values for one entry are separate records, joined by “and”; a condition that tells them apart may be missing. Identical values can stand only once. Inconclusive results and toxic doses are left out.

System: P388 leukemia ip, CD2F1 mice, survival T/C
Experiment: NCI In Vivo Anticancer Drug Screen. Data for tumor model P388 Leukemia (intraperitoneal) in CD2F1 (CDF1) mice
Details: endpoint: median survival time, higher = longer survival
Method in brief: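 Mice carrying the transplanted tumor received test compound or vehicle. Survival was recorded in each group, and the value is the treated-group measurement divided by that of the vehicle-treated control group.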

[1] = dose: 50.0 mg/kg/injection, schedule: Q01DX009 (ip), vehicle: saline
[2] = dose: 100.0 mg/kg/injection, schedule: Q01DX009 (ip), vehicle: saline
[3] = dose: 200.0 mg/kg/injection, schedule: Q01DX009 (ip), vehicle: saline

With `O=C(Oc1ccc[nH]c1=O)c1cc([N+](=O)[O-])cc([N+](=O)[O-])c1` the T/C (dose: 12.5 mg/kg/injection, schedule: Q01DX009 (ip), vehicle: saline) was 99 % of control and 100 % of control, the T/C (dose: 25.0 mg/kg/injection, schedule: Q01DX009 (ip), vehicle: saline) was 98 % of control and 107 % of control and the T/C [1] was 99 % of control and 103 % of control. For the same molecule, the T/C [2] was 100 % of control, the T/C [3] was 98 % of control and 101 % of control and the T/C (dose: 400.0 mg/kg/injection, schedule: Q01DX009 (ip), vehicle: saline) was 100 % of control and 109 % of control.

With `O=[N+]([O-])c1cnc(Sc2cncc[n+]2[O-])s1` the T/C (dose: 1.56 mg/kg/injection, schedule: Q01DX009 (ip), vehicle: Klucel (hydroxypropylcellulose) (HPC)) was 100 % of control, the T/C (dose: 3.12 mg/kg/injection, schedule: Q01DX009 (ip), vehicle: Klucel (hydroxypropylcellulose) (HPC)) was 93 % of control and the T/C (dose: 6.25 mg/kg/injection, schedule: Q01DX009 (ip), vehicle: Klucel (hydroxypropylcellulose) (HPC)) was 102 % of control and 90 % of control.

For `COc1cc2cc3c(nc2cc1OC)OC(=O)/C3=C\c1ccccc1`, the T/C (dose: 50.0 mg/kg/injection, schedule: Q01DX005 (ip), vehicle: saline with Tween-80) was 99 % of control, the T/C (dose: 100.0 mg/kg/injection, schedule: Q01DX005 (ip), vehicle: saline with Tween-80) was 98 % of control and the T/C (dose: 200.0 mg/kg/injection, schedule: Q01DX005 (ip), vehicle: saline with Tween-80) was 103 % of control.

In the case of `Cc1[nH]nc2c(=O)n(C)cnc12`, the T/C (dose: 25.0 mg/kg/injection, schedule: Q01DX005 (ip), vehicle: water) is reported as 100 % of control, the T/C (dose: 50.0 mg/kg/injection, schedule: Q01DX005 (ip), vehicle: water) is reported as 94 % of control and the T/C (dose: 100.0 mg/kg/injection, schedule: Q01DX005 (ip), vehicle: water) is reported as 92 % of control. The T/C (dose: 200.0 mg/kg/injection, schedule: Q01DX005 (ip), vehicle: water) was 93 % of control and the T/C (dose: 400.0 mg/kg/injection, schedule: Q01DX005 (ip), vehicle: water) was 91 % of control.

With `Cc1cc(Cl)ccc1NC(=O)C1C(=O)N(c2ccc(Cl)cc2C)C(=O)/C1=N\NC(N)=O` (stereo unspecified) the T/C (dose: 60.0 mg/kg/injection, schedule: Q01DX005 (ip), vehicle: saline with Tween-80) was 101 % of control, the T/C (dose: 120.0 mg/kg/injection, schedule: Q01DX005 (ip), vehicle: saline with Tween-80) was 93 % of control and the T/C (dose: 240.0 mg/kg/injection, schedule: Q01DX005 (ip), vehicle: saline with Tween-80) was 98 % of control.

`O=c1ccocc1CN1CCCCC1` was tested, and the T/C [1] was 100 % of control, the T/C [2] was 99 % of control and the T/C [3] was 99 % of control.

In the case of `CNC(=O)Oc1cccc2c(OC3OC(CO)C(O)C(O)C3O)cccc12` (stereo unspecified), the T/C (dose: 100.0 mg/kg/injection, schedule: Q04DX003 (ip), vehicle: Klucel (hydroxypropylcellulose) (HPC)) is reported as 97 % of control, the T/C (dose: 200.0 mg/kg/injection, schedule: Q04DX003 (ip), vehicle: Klucel (hydroxypropylcellulose) (HPC)) is reported as 106 % of control and the T/C (dose: 400.0 mg/kg/injection, schedule: Q04DX003 (ip), vehicle: Klucel (hydroxypropylcellulose) (HPC)) is reported as 101 % of control.

`CCCn1c2ccccc2c2c(C)c3cnccc3c(C)c21` was tested, and the T/C (dose: 12.5 mg/kg/injection, schedule: Q04DX002 (ip), vehicle: saline with Tween-80) was 100 % of control, the T/C (dose: 25.0 mg/kg/injection, schedule: Q04DX002 (ip), vehicle: saline with Tween-80) was 97 % of control and the T/C (dose: 50.0 mg/kg/injection, schedule: Q04DX002 (ip), vehicle: saline with Tween-80) was 94 % of control. The T/C (dose: 100.0 mg/kg/injection, schedule: Q04DX002 (ip), vehicle: saline with Tween-80) was 105 % of control.

In the case of `COc1cccc2c1C(=O)c1c(O)c3c(c(O)c1C2=O)C[C@@](O)(c1csc(N)n1)C[C@@H]3OC1CC(N)C(O)C(C)O1` (stereo partly specified), the T/C (dose: 1.56 mg/kg/injection, schedule: Q01DX009 (ip), vehicle: water) is reported as 150 % of control, the T/C (dose: 6.25 mg/kg/injection, schedule: Q01DX009 (ip), vehicle: water) is reported as 157 % of control and 160 % of control and the T/C (dose: 6.25 mg/kg/injection, schedule: Q04DX003 (ip), vehicle: water) is reported as 96 % of control. For the same molecule, the T/C (dose: 12.5 mg/kg/injection, schedule: Q01DX009 (ip), vehicle: water) was 155 % of control and 163 % of control, the T/C (dose: 12.5 mg/kg/injection, schedule: Q04DX003 (ip), vehicle: water) was 105 % of control and 109 % of control and the T/C (dose: 25.0 mg/kg/injection, schedule: Q01DX009 (ip), vehicle: water) was 178 % of control. The T/C (dose: 25.0 mg/kg/injection, schedule: Q04DX003 (ip), vehicle: water) was 118 % of control and the T/C (dose: 100.0 mg/kg/injection, schedule: Q04DX003 (ip), vehicle: water) was 123 % of control.

`S=C(NCCCCCCNC(=S)Nc1ccc2ccccc2n1)Nc1ccc2ccccc2n1` was tested, and the T/C (dose: 50.0 mg/kg/injection, schedule: Q01DX009 (ip), vehicle: Klucel (hydroxypropylcellulose) (HPC)) was 100 % of control, the T/C (dose: 100.0 mg/kg/injection, schedule: Q01DX009 (ip), vehicle: Klucel (hydroxypropylcellulose) (HPC)) was 97 % of control and the T/C (dose: 200.0 mg/kg/injection, schedule: Q01DX009 (ip), vehicle: Klucel (hydroxypropylcellulose) (HPC)) was 91 % of control.

In the case of `C=C(Cl)C(=NC(C)C)Nc1ccccc1C`, the T/C (dose: 0.79 mg/kg/injection, schedule: Q01DX005 (ip), vehicle: Klucel (hydroxypropylcellulose) (HPC)) is reported as 112 % of control, the T/C (dose: 1.56 mg/kg/injection, schedule: Q01DX005 (ip), vehicle: Klucel (hydroxypropylcellulose) (HPC)) is reported as 100 % of control and 107 % of control and the T/C (dose: 3.12 mg/kg/injection, schedule: Q01DX005 (ip), vehicle: Klucel (hydroxypropylcellulose) (HPC)) is reported as 107 % of control and 110 % of control and 115 % of control. For the same molecule, the T/C (dose: 6.25 mg/kg/injection, schedule: Q01DX005 (ip), vehicle: Klucel (hydroxypropylcellulose) (HPC)) was 118 % of control and 86 % of control and the T/C (dose: 12.5 mg/kg/injection, schedule: Q01DX005 (ip), vehicle: Klucel (hydroxypropylcellulose) (HPC)) was 102 % of control and 114 % of control.
